# From patent US20110028566A1, “COMPOSITIONS AND PRODUCTS CONTAINING CYCLOALIPHATIC DIOL ANTIMICROBIAL AGENTS AND METHODS OF USING THE COMPOSITIONS AND PRODUCTS” (EASTMAN CHEMICAL COMPANY, priority 2009, published 2011)
# Key:
# Experiment in all cases: Microbial challenge testing in BPW
# Type in all cases: cell-based
# [1] = test system: Staphylococcus aureus
# In short: (§1)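 Test materials, dosed as w/v % in BPW pH 7.0 with 1% dextrose, were challenged with bacteria at 10^5–10^6 cfu/mL starting count. Inocula came from 96 h or longer TSB-dextrose cultures, and counts were checked by PCA spread-plating. Samples were incubated 14 days at 35 °C, then at ambient temperature.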
# [2] = test system: Aeromonas sp.
# In short: as §1
# [3] = test system: Burkholderia cepacia
# In short: as §1
# [4] = test system: Escherichia coli
# In short: as §1
# [5] = test system: Bacillus subtilis
# In short: as §1
# [6] = test system: Streptococcus mutans
# In short: as §1
# [7] = test system: Proteus vulgaris
# In short: as §1
# [8] = test system: Pseudomonas aeruginosa
# In short: as §1
# [9] = test system: Staphylococcus epidermidis
# In short: as §1
compound,measurement,setting,value
"CC1(C)C(O)C(C)(C)C1O (stereo not drawn) [TMCD, 2,2,4,4-tetramethyl-1,3-cyclobutanediol]",Grade code S. aureus,"[1]; 0.5%, 3 days incubation","4 (1001 to 10,000 colonies (thus 10,000 cfu/mL to 100,000 cfu/mL))"
same,Grade code S. aureus,"[1]; 0.5%, 14 days incubation","4 (1001 to 10,000 colonies (thus 10,000 cfu/mL to 100,000 cfu/mL))"
same,Grade code S. aureus,"[1]; 0.5%, 30 days incubation","4 (1001 to 10,000 colonies (thus 10,000 cfu/mL to 100,000 cfu/mL))"
same,Grade code S. aureus,"[1]; 1.25%, 3 days incubation","4 (1001 to 10,000 colonies (thus 10,000 cfu/mL to 100,000 cfu/mL))"
same,Grade code S. aureus,"[1]; 1.25%, 14 days incubation","4 (1001 to 10,000 colonies (thus 10,000 cfu/mL to 100,000 cfu/mL))"
same,Grade code S. aureus,"[1]; 1.25%, 30 days incubation","4 (1001 to 10,000 colonies (thus 10,000 cfu/mL to 100,000 cfu/mL))"
same,Grade code S. aureus,"[1]; 2.5%, 3 days incubation",2 (52 to 100 colonies counted (thus 520 to 1000 cfu/mL))
same,Grade code S. aureus,"[1]; 2.5%, 14 days incubation",1 (1 to 51 colonies counted (thus 10 to 510 cfu/mL))
same,Grade code S. aureus,"[1]; 2.5%, 30 days incubation",1 (1 to 51 colonies counted (thus 10 to 510 cfu/mL))
same,Grade code Aeromonas sp,"[2]; 0.5%, 3 days incubation","5 (More than 10,000 colonies estimated (thus >100,000 cfu/mL))"
same,Grade code Aeromonas sp,"[2]; 0.5%, 14 days incubation","4 (1001 to 10,000 colonies (thus 10,000 cfu/mL to 100,000 cfu/mL))"
same,Grade code Aeromonas sp,"[2]; 0.5%, 30 days incubation","4 (1001 to 10,000 colonies (thus 10,000 cfu/mL to 100,000 cfu/mL))"
same,Grade code Aeromonas sp,"[2]; 1.25%, 3 days incubation","4 (1001 to 10,000 colonies (thus 10,000 cfu/mL to 100,000 cfu/mL))"
same,Grade code Aeromonas sp,"[2]; 1.25%, 14 days incubation","4 (1001 to 10,000 colonies (thus 10,000 cfu/mL to 100,000 cfu/mL))"
same,Grade code Aeromonas sp,"[2]; 1.25%, 30 days incubation","4 (1001 to 10,000 colonies (thus 10,000 cfu/mL to 100,000 cfu/mL))"
same,Grade code Aeromonas sp,"[2]; 2.5%, 3 days incubation","4 (1001 to 10,000 colonies (thus 10,000 cfu/mL to 100,000 cfu/mL))"
same,Grade code Aeromonas sp,"[2]; 2.5%, 14 days incubation",2 (52 to 100 colonies counted (thus 520 to 1000 cfu/mL))
same,Grade code Aeromonas sp,"[2]; 2.5%, 30 days incubation","3 (101 to 1000 colonies (thus 1000 to 10,000 cfu/mL))"
same,Grade code B. cepacia,"[3]; 0.5%, 3 days incubation","4 (1001 to 10,000 colonies (thus 10,000 cfu/mL to 100,000 cfu/mL))"
same,Grade code B. cepacia,"[3]; 0.5%, 14 days incubation","4 (1001 to 10,000 colonies (thus 10,000 cfu/mL to 100,000 cfu/mL))"
same,Grade code B. cepacia,"[3]; 0.5%, 30 days incubation","4 (1001 to 10,000 colonies (thus 10,000 cfu/mL to 100,000 cfu/mL))"
same,Grade code B. cepacia,"[3]; 1.25%, 3 days incubation","3 (101 to 1000 colonies (thus 1000 to 10,000 cfu/mL))"
same,Grade code B. cepacia,"[3]; 1.25%, 14 days incubation",2 (52 to 100 colonies counted (thus 520 to 1000 cfu/mL))
same,Grade code B. cepacia,"[3]; 1.25%, 30 days incubation","4 (1001 to 10,000 colonies (thus 10,000 cfu/mL to 100,000 cfu/mL))"
same,Grade code B. cepacia,"[3]; 2.5%, 3 days incubation",1 (1 to 51 colonies counted (thus 10 to 510 cfu/mL))
same,Grade code B. cepacia,"[3]; 2.5%, 14 days incubation",0 (No growth detected or <1 colony (thus <10 cfu/mL))
same,Grade code B. cepacia,"[3]; 2.5%, 30 days incubation",0 (No growth detected or <1 colony (thus <10 cfu/mL))
same,Grade code E. coli,"[4]; 0.5%, 3 days incubation","5 (More than 10,000 colonies estimated (thus >100,000 cfu/mL))"
same,Grade code E. coli,"[4]; 0.5%, 14 days incubation","4 (1001 to 10,000 colonies (thus 10,000 cfu/mL to 100,000 cfu/mL))"
same,Grade code E. coli,"[4]; 0.5%, 30 days incubation","4 (1001 to 10,000 colonies (thus 10,000 cfu/mL to 100,000 cfu/mL))"
same,Grade code E. coli,"[4]; 1.25%, 3 days incubation","4 (1001 to 10,000 colonies (thus 10,000 cfu/mL to 100,000 cfu/mL))"
same,Grade code E. coli,"[4]; 1.25%, 14 days incubation","4 (1001 to 10,000 colonies (thus 10,000 cfu/mL to 100,000 cfu/mL))"
same,Grade code E. coli,"[4]; 1.25%, 30 days incubation","4 (1001 to 10,000 colonies (thus 10,000 cfu/mL to 100,000 cfu/mL))"
same,Grade code E. coli,"[4]; 2.5%, 3 days incubation","4 (1001 to 10,000 colonies (thus 10,000 cfu/mL to 100,000 cfu/mL))"
same,Grade code E. coli,"[4]; 2.5%, 14 days incubation","4 (1001 to 10,000 colonies (thus 10,000 cfu/mL to 100,000 cfu/mL))"
same,Grade code E. coli,"[4]; 2.5%, 30 days incubation","4 (1001 to 10,000 colonies (thus 10,000 cfu/mL to 100,000 cfu/mL))"
same,Grade code B. subtilis,"[5]; 0.5%, 3 days incubation","4 (1001 to 10,000 colonies (thus 10,000 cfu/mL to 100,000 cfu/mL))"
same,Grade code B. subtilis,"[5]; 0.5%, 14 days incubation","4 (1001 to 10,000 colonies (thus 10,000 cfu/mL to 100,000 cfu/mL))"
same,Grade code B. subtilis,"[5]; 0.5%, 30 days incubation","4 (1001 to 10,000 colonies (thus 10,000 cfu/mL to 100,000 cfu/mL))"
same,Grade code B. subtilis,"[5]; 1.25%, 3 days incubation","4 (1001 to 10,000 colonies (thus 10,000 cfu/mL to 100,000 cfu/mL))"
same,Grade code B. subtilis,"[5]; 1.25%, 14 days incubation","4 (1001 to 10,000 colonies (thus 10,000 cfu/mL to 100,000 cfu/mL))"
same,Grade code B. subtilis,"[5]; 1.25%, 30 days incubation","4 (1001 to 10,000 colonies (thus 10,000 cfu/mL to 100,000 cfu/mL))"
same,Grade code B. subtilis,"[5]; 2.5%, 3 days incubation","4 (1001 to 10,000 colonies (thus 10,000 cfu/mL to 100,000 cfu/mL))"
same,Grade code B. subtilis,"[5]; 2.5%, 14 days incubation","4 (1001 to 10,000 colonies (thus 10,000 cfu/mL to 100,000 cfu/mL))"
same,Grade code B. subtilis,"[5]; 2.5%, 30 days incubation","4 (1001 to 10,000 colonies (thus 10,000 cfu/mL to 100,000 cfu/mL))"
same,Grade code S. mutans,"[6]; 0.5%, 3 days incubation","4 (1001 to 10,000 colonies (thus 10,000 cfu/mL to 100,000 cfu/mL))"
same,Grade code S. mutans,"[6]; 0.5%, 13 days incubation","4 (1001 to 10,000 colonies (thus 10,000 cfu/mL to 100,000 cfu/mL))"
same,Grade code S. mutans,"[6]; 0.5%, 30 days incubation","4 (1001 to 10,000 colonies (thus 10,000 cfu/mL to 100,000 cfu/mL))"
same,Grade code S. mutans,"[6]; 1.25%, 3 days incubation","4 (1001 to 10,000 colonies (thus 10,000 cfu/mL to 100,000 cfu/mL))"
same,Grade code S. mutans,"[6]; 1.25%, 13 days incubation","4 (1001 to 10,000 colonies (thus 10,000 cfu/mL to 100,000 cfu/mL))"
same,Grade code S. mutans,"[6]; 1.25%, 30 days incubation","4 (1001 to 10,000 colonies (thus 10,000 cfu/mL to 100,000 cfu/mL))"
same,Grade code S. mutans,"[6]; 2.5%, 3 days incubation","3 (101 to 1000 colonies (thus 1000 to 10,000 cfu/mL))"
same,Grade code S. mutans,"[6]; 2.5%, 13 days incubation",1 (1 to 51 colonies counted (thus 10 to 510 cfu/mL))
same,Grade code S. mutans,"[6]; 2.5%, 30 days incubation",0 (No growth detected or <1 colony (thus <10 cfu/mL))
same,Grade code P. vulqaris,"[7]; 0.5%, 3 days incubation","4 (1001 to 10,000 colonies (thus 10,000 cfu/mL to 100,000 cfu/mL))"
same,Grade code P. vulqaris,"[7]; 0.5%, 13 days incubation","4 (1001 to 10,000 colonies (thus 10,000 cfu/mL to 100,000 cfu/mL))"
same,Grade code P. vulqaris,"[7]; 0.5%, 30 days incubation","4 (1001 to 10,000 colonies (thus 10,000 cfu/mL to 100,000 cfu/mL))"
same,Grade code P. vulqaris,"[7]; 1.25%, 3 days incubation","3 (101 to 1000 colonies (thus 1000 to 10,000 cfu/mL))"
same,Grade code P. vulqaris,"[7]; 1.25%, 13 days incubation",2 (52 to 100 colonies counted (thus 520 to 1000 cfu/mL))
same,Grade code P. vulqaris,"[7]; 1.25%, 30 days incubation",0 (No growth detected or <1 colony (thus <10 cfu/mL))
same,Grade code P. vulqaris,"[7]; 2.5%, 3 days incubation","4 (1001 to 10,000 colonies (thus 10,000 cfu/mL to 100,000 cfu/mL))"
same,Grade code P. vulqaris,"[7]; 2.5%, 13 days incubation",1 (1 to 51 colonies counted (thus 10 to 510 cfu/mL))
same,Grade code P. vulqaris,"[7]; 2.5%, 30 days incubation",0 (No growth detected or <1 colony (thus <10 cfu/mL))
same,Grade code P. aeruginosa,"[8]; 0.5%, 3 days incubation","4 (1001 to 10,000 colonies (thus 10,000 cfu/mL to 100,000 cfu/mL))"
same,Grade code P. aeruginosa,"[8]; 0.5%, 13 days incubation","4 (1001 to 10,000 colonies (thus 10,000 cfu/mL to 100,000 cfu/mL))"
same,Grade code P. aeruginosa,"[8]; 0.5%, 30 days incubation","4 (1001 to 10,000 colonies (thus 10,000 cfu/mL to 100,000 cfu/mL))"
same,Grade code P. aeruginosa,"[8]; 1.25%, 3 days incubation","4 (1001 to 10,000 colonies (thus 10,000 cfu/mL to 100,000 cfu/mL))"
same,Grade code P. aeruginosa,"[8]; 1.25%, 13 days incubation","4 (1001 to 10,000 colonies (thus 10,000 cfu/mL to 100,000 cfu/mL))"
same,Grade code P. aeruginosa,"[8]; 1.25%, 30 days incubation","4 (1001 to 10,000 colonies (thus 10,000 cfu/mL to 100,000 cfu/mL))"
same,Grade code P. aeruginosa,"[8]; 2.5%, 3 days incubation","4 (1001 to 10,000 colonies (thus 10,000 cfu/mL to 100,000 cfu/mL))"
same,Grade code P. aeruginosa,"[8]; 2.5%, 13 days incubation","3 (101 to 1000 colonies (thus 1000 to 10,000 cfu/mL))"
same,Grade code P. aeruginosa,"[8]; 2.5%, 30 days incubation","4 (1001 to 10,000 colonies (thus 10,000 cfu/mL to 100,000 cfu/mL))"
same,Grade code S. epidermidis,"[9]; 0.5%, 3 days incubation","4 (1001 to 10,000 colonies (thus 10,000 cfu/mL to 100,000 cfu/mL))"
same,Grade code S. epidermidis,"[9]; 0.5%, 13 days incubation","4 (1001 to 10,000 colonies (thus 10,000 cfu/mL to 100,000 cfu/mL))"
same,Grade code S. epidermidis,"[9]; 0.5%, 30 days incubation","4 (1001 to 10,000 colonies (thus 10,000 cfu/mL to 100,000 cfu/mL))"
same,Grade code S. epidermidis,"[9]; 1.25%, 3 days incubation",2 (52 to 100 colonies counted (thus 520 to 1000 cfu/mL))
same,Grade code S. epidermidis,"[9]; 1.25%, 13 days incubation","3 (101 to 1000 colonies (thus 1000 to 10,000 cfu/mL))"
same,Grade code S. epidermidis,"[9]; 1.25%, 30 days incubation","4 (1001 to 10,000 colonies (thus 10,000 cfu/mL to 100,000 cfu/mL))"
same,Grade code S. epidermidis,"[9]; 2.5%, 3 days incubation",2 (52 to 100 colonies counted (thus 520 to 1000 cfu/mL))
same,Grade code S. epidermidis,"[9]; 2.5%, 13 days incubation",2 (52 to 100 colonies counted (thus 520 to 1000 cfu/mL))
same,Grade code S. epidermidis,"[9]; 2.5%, 30 days incubation",2 (52 to 100 colonies counted (thus 520 to 1000 cfu/mL))
